In article PMC2440032, “Odorranalectin Is a Small Peptide Lectin with Potential for Drug Delivery and Targeting” (PLoS ONE, 2008):
“And” between values parts separate entries of the source, which are not always exact repeats. Equal values may be shown once.

What was measured:
[1] = test system: odorranalectin-mediated erythrocytes hemagglutination; test: Hemagglutination-inhibition test; format: cell-based, rabbit; conditions: for MIC, minimum concentration to inhibit odorranalectin-mediated erythrocytes hemagglutination: inhibition of four hemagglutination doses of odorranalectin
Method: Intact, pronase-treated, trypsin-treated, and formaldehyde-treated rabbit erythrocytes were prepared. Assays were carried out in U-well microtiter plates (96 wells) as described previously [21]–[23]. The details are provided in the supplementary materials (Materials and Methods S1).
Inhibition was expressed as the minimum concentration of each sugar or glycoprotein required for inhibition of hemagglutination of titer 4 of the lectin.

[2] = biological target: immobilized odorranalectin (Odorrana grahami, UniProt B3TFE9); test: SPR, analytes on immobilized odorranalectin; format: binding
Method: Real time detection of odorranalectin and its mutants binding to glycoproteins and L-fucose was recorded by using a Biacore 3000 [21]–[24]. The details are provided in the supplementary materials (Materials and Methods S1).
SPR Analysis. Real time detection of odorranalectin and its mutants binding to glycoproteins and L-fucose was recorded by using a Biacore 3000 [21-24]. Odorranalectin was immobilized covalently via their primary amines to carboxyl groups within a dextran layer on the sensor chip CM-5 according to the manufacturer’s specifications. After chip activation with 0.4 M 1-ethyl-3- (3-dimethylaminopropyl) carbodiimide hydrochloride and 10 mM N-hydroxysuccinimide, odorranalectin or its mutants (in 10 mM sodium acetate buffer, pH 4.0) at a concentration of 100 μg/ml was passed through the flow cells at a rate of 5 μl/min. After immobilization, the chip was capped by exposure to 1 M ethanolamine (pH 8.5).
All analyses were performed at a flow rate of 30 μl/min. Before loading of analytes, the chip was equilibrated with 10 mM HEPES-buffered saline containing 3 mM EDTA and 0.005% surfactant P-20, pH 7.4 (HBS-EP). Each analyte at various concentrations in the same buffer was injected over the immobilized ligand for 4 min. After injection of the analyte, HBS-EP was introduced onto the sensor surface to start dissociation, and dissociation data were collected for 5 min. The chip was regenerated by injection of 5μl of 10 mM HCl or NaOH, followed by HBS-EP.
Association and dissociation rate constants (ka and kd) were calculated by using BIA evaluation 4.0 software (Biacore AB, Sweden). The affinity constant (KD) was calculated from the ka and kd. For the calculation of rate constants, samples were appropriately diluted in HBS-EP at various concentrations.

[3] = SPR Biacore 3000, CM-5 chip, HBS-EP pH 7.4, 1:1 binding model

Row | Molecule | MIC, minimum concentration to inhibit odorranalectin-mediated erythrocytes hemagglutination ([1]; sugars) | other results
1 | O=[N+]([O-])c1ccccc1O[C@@H]1O[C@H](CO)[C@H](O)[C@H](O)[C@H]1O [2-nitrophenyl-β-D-galactopyranoside] | > 200 mM | 
2 | OC[C@H]1O[C@@H](Oc2c[nH]c3ccc(Br)c(Cl)c23)[C@H](O)[C@@H](O)[C@H]1O [5-bromo-4-chloro-3-indoxyl-β-D-galactopyranoside] | > 200 mM | 
3 | OC1OC[C@@H](O)[C@@H](O)[C@@H]1O (stereo partly drawn) [D(+)-arabinose] | > 200 mM | 
4 | OC[C@H]1O[C@@H](O[C@H]2[C@H](O)[C@@H](O)[C@H](O)O[C@@H]2CO)[C@H](O)[C@@H](O)[C@@H]1O [D(+)-cellobiose] | > 200 mM | 
5 | OC[C@H]1OC(O)[C@H](O)[C@@H](O)[C@H]1O (stereo partly drawn) [D(+)-galactose] | > 200 mM | 
6 | O=C(O)[C@H]1OC(O)[C@H](O)[C@@H](O)[C@H]1O (stereo partly drawn) [D(+)-galacturonic acid] | > 200 mM | 
7 | O.OC[C@H]1O[C@@](CO)(O[C@H]2O[C@H](CO)[C@@H](O)[C@H](O)[C@H]2O)[C@@H](O[C@H]2O[C@H](CO)[C@@H](O)[C@H](O)[C@H]2O)[C@@H]1O [D(+)-melezitose monohydrate] | > 200 mM | 
8 | O.O.O.O.O.OC[C@H]1O[C@H](OC[C@H]2O[C@H](O[C@]3(CO)O[C@H](CO)[C@@H](O)[C@@H]3O)[C@H](O)[C@@H](O)[C@@H]2O)[C@H](O)[C@@H](O)[C@H]1O [D(+)-raffinose pentahydrate] | > 200 mM | 
9 | OC1COC(O)C(O)C1O (stereo not drawn) [D(+)-xylose] | > 200 mM | 
10 | OC[C@H]1OC(O)[C@H](O)[C@@H](O)[C@@H]1O (stereo partly drawn) [D-glucose] | > 200 mM | 
11 | O=C(CO)[C@H](O)[C@@H](O)[C@H](O)CO [D-sorbose] | > 200 mM | 
12 | OC[C@H]1O[C@H](O[C@H]2O[C@H](CO)[C@@H](O)[C@H](O)[C@H]2O)[C@H](O)[C@@H](O)[C@@H]1O [D-trehalose] | > 200 mM | 
13 | C[C@@H]1O[C@@H](O)[C@H](O)[C@H](O)[C@H]1O.O [L(+)-rhamnose monohydrate] | > 200 mM | 
14 | C[C@H](O)[C@@H](O)[C@@H](O)[C@H](O)C=O [L-fucose, reference compound] |  | Kd ([2]; SPR Biacore 3000, CM-5 chip, HBS-EP pH 7.4, calculated from ka and kd): 54.7 µM; kon ([2]; pH 7.4, read-out: ka): 159 M⁻¹ s⁻¹; koff ([2]; pH 7.4, read-out: kd): 0.00867 s⁻¹; minimal effective concentration ([1]; Oryctolagus cuniculus, Erythrocyte, read-out: MIC, minimum concentration to inhibit odorranalectin-mediated erythrocytes hemagglutination): 12500 µM
15 | CC(=O)N[C@@H]1C(O)O[C@H](CO)[C@@H](O)[C@@H]1O (stereo partly drawn) [N-acetyl-D-mannosamine] | > 200 mM | 
16 | CC(=O)N[C@@H]1[C@@H](O)[C@@H](O)[C@@H](CO)O[C@@H]1O [N-acetylgalactosamine] | > 200 mM | 
17 | O=C(CO)N[C@H]1[C@H]([C@H](O)[C@H](O)CO)OC(O)(C(=O)O)C[C@@H]1O (stereo partly shown) [N-glycolylneuraminc acid] | > 200 mM | 
18 | OC[C@@H](O)[C@H](O)[C@H](O)[C@@H](O)CO [dulcitol] | > 200 mM | 
19 | CC(C)S[C@@H]1O[C@H](CO)[C@H](O)[C@H](O)[C@H]1O [isopropy-β-D-thiogalactoside] | > 200 mM | 
20 | D(+)-maltose monohydrate | > 200 mM | 
21 | Fetuin: glycoprotein used as analyte and inhibitor |  | ka [2, 3]: 2890 M⁻¹ s⁻¹; kd [2, 3]: 0.00061 s⁻¹; Inhibition of the hemagglutinating activity of odorranalectin by glycoproteins (in words) [1]: most effective inhibitor; MIC, minimum concentration to inhibit odorranalectin-mediated erythrocytes hemagglutination ([1]; glycoproteins): 15.63 µg/mL and 15.6 µg/mL
22 | Transferrin: glycoprotein used as analyte |  | Binding to immobilized odorranalectin (in words) ([2]; SPR): did not bind; Inhibition of the hemagglutinating activity of odorranalectin by glycoproteins (in words) [1]: All the glycoproteins except transferrin could inhibit
23 | heparin | > 200 mM | 
24 | inulin | > 200 mM | 
